Laboratory results: patent publication US5219825A, “Synergistic herbicidal compositions comprising herbicides which generate toxic oxygen radicals and chelating agents which inhibit their detoxification” (Yeda Research and Development Co., Ltd., priority 1986, dated 1993)

Assays:
[1] = test system: Conyza bonariensis paraquat tolerant (high herbicide requiring) biotype; experiment: Malonyldialdehyde in tissue (lipoxidation, membrane damage) after spraying; format: in vivo; conditions: atrazine 0 μM; DDC 0.5% alone; high herbicide requiring biotype; untreated control = 100
Description: (§1) Seeds of two biotypes of Conyza bonariensis (L.) Cronq. (synonym C. linifolia) were obtained from Egypt. The paraquat sensitive biotype was gathered near Alexendria and seeds of the resistant type from the Tahrir irrigation district. They were obtained from Dr. Martin Parham in England. Seeds were germinated in a growth room with a 14 h light period at 25° C. Plants were transferred out of doors 24 h before being sprayed. The phytotoxicity of three herbicides representative of the three different modes of generating active oxygen species known at present. Commercial paraquat (Gramoxone-ICI Plant Protection Ltd) was formulated with 0.1% (w/v) Tween-20 (a non-ionic surfactant) for spraying. The response to the range of 10^-5 M to 10^-2 M paraquat was measured by spraying two plants per concentration to run-off in the early morning. All plants were exposed to sunlight for at least 13 h (1300 μE.m^-2s^-1 photosynthetically active radiation (PAR) at mid day). Commercial acifluorfen (Blazer, Rohm, and Hass, Philadelphia, Pa., USA) to which was added 0.25% Tween-20 was sprayed to run-off. The response to spraying was measured as with paraquat 24 h after spraying. Commercial atrazine (Atranex 50 WP-Agan) was sprayed at various rates in 0.25% Tween 20 to run off. Fully expanded, 8 to 10 cm long leaves from plants in the rosette stage were used in all experiments. Phytotoxicity of acifluorfen and paraquat was measured as CO2 fixation 24 h later as follows: Detached leaves were placed on wet filter paper in a sealed chamber with 5μ Ci^14 C-sodium bicarbonate. Tartaric acid was remotely dripped on the sodium bicarbonate to release ^14 CO2. Leaves were illuminated with […] (PAR) for 30 min. Eighty percent acetone was added and the mixture put under strong light to photobleach pigments and evaporate the acetone. A scintillation mixture of Lumax:xylene (45:55) was added to the leaves and remaining water. The samples were counted and the data expressed as DPM.cm^-2. Area was measured with a planimeter from photocopies of the leaves made prior to photosynthesis measurements. Phytotoxicity of atrazine was measured as the elevated level of malonyldialdehyde in the tissue. Malonyldialdehyde (as measured with thiobarbituric acid according to Dodge and Gillham (Asp. Appl. Biol 11 97 (1986)) is a measurement of lipoxidation of unsaturated fatty acids, and provides an excellent estimation of damage by active oxygen species.
(§2) ^b membrane damage was measured as malonyldialdehyde release
(§3) Similarly, both the paraquat resistant and sensitive biotypes of Conyza bonariensis were treated with two other oxidant generating herbicides. Atrazine (of the triazine group) is the most widely used oxidant generating herbicides in agriculture. We used various dilutions of a commercial wettable powder (Atranex 50WP-Agan Chemicals) to which we added 0.5% DDC. The effects were scored 24 h later. […] We also tested to see whether acifluorfen, a nitro diphenyl ether herbicide would be synergized. It is generally agreed that light and oxygen are required for its action via oxidant damage. We sprayed a commercial formulation of acifluorfen (Blazer, Rohm and Haas) to which were added 0.25% Tween-20 detergent, with and without DDC. The effects were scored 24 h later.

[2] = test system: Conyza bonariensis paraquat sensitive (low herbicide requiring) biotype; experiment: as above; format: in vivo; conditions: atrazine 0 μM; DDC 0.5% alone; low herbicide requiring biotype; untreated control = 100
Description: as §1, §2, §3

[3] = test system: Conyza bonariensis low herbicide requiring biotype; experiment: Photosynthesis (14CO2 fixation) of leaf discs removed 5 h after spray treatment; format: in vivo; conditions: foliar, acifluorfen 0 μM, DDC 0.5% alone, leaf discs removed 5 h after treatment, untreated control = 100
Description: as §3
^b photosynthesis (^14 CO2 fixation) was used as an
additional measurement of phytotoxicity. Leaf discs were removed 5 h afte
treatment for measurement

[4] = test system: Biotypes of certain weed species; conditions: cited from earlier work
weed species = conditions: cited from earlier work
bean leaf discs = experiment: Bean leaf disc bleaching assay; format: cell-based; conditions: paraquat 20 μM; chelator 0.01% w/v where added; 5 h at 450 μEin.m^-2 s^-1
Description: We used this bean leaf disc system to ascertain the potential of chelators to synergize a large variety of phytotoxicants purported to act by generating active oxygen species in the light.
Bean discs were incubated on solutions containing the above mixtures for 5 h at 450 μEin.m^-2 s^-1 and the chlorophyll remaining in the leaves was assayed.

CCN(CC)C(=S)[S-].[Na+] [DDC, Sodium diethyldithiocarbamate]
membrane damage (malonyldialdehyde release) [1]: 112 | membrane damage (malonyldialdehyde release) [2]: 125 | activity at 0.5 % [3]: 92%

C[n+]1ccc(-c2cc[n+](C)cc2)cc1 [paraquat, 1,1'-dimethyl-4-4'bipyridium ion]
rate that does not kill resistant biotypes ([4]; biotypes that have evolved resistance to paraquat): > 16 kg/ha | rate that controls the sensitive biotype ([4]; sensitive biotype of the same species): 1 kg/ha | rate at which species are killed (weed species; Bromis inermis, Amaranthus retroflexus and wheat): 0.01 kg/ha | rate required for good control (weed species; Digitaria, Chenopodium album, Sinapis arvensis and Galium aparine): 3 kg/ha | chlorophyll - % of control (bean leaf discs): 52 % of control
